From PMC3798605, “Independent Pathways Can Transduce the Life-Cycle Differentiation Signal in Trypanosoma brucei” (PLoS Pathogens, 2013)

Molecular target: T1, TbPTP1/TbPIP39 (Trypanosoma brucei, UniProt Q38AT7+Q38EW0)
T1 construct: gene Tb10.70.0070; His-TbPTP1 plus GST-TbPIP39 (recoded synthetic gene, pGEX4T1); biophysical preparations described in supplement
T1 sequence (Q38AT7 1-306): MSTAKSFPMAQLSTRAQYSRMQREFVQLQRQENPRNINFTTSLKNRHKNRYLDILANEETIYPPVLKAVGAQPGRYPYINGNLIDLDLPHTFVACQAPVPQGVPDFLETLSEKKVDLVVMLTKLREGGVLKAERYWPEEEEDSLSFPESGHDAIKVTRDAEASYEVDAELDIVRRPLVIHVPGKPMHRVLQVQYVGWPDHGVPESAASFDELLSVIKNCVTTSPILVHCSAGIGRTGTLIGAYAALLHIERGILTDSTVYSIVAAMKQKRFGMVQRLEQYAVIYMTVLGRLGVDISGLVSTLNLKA
T1 sequence (Q38EW0 1-343): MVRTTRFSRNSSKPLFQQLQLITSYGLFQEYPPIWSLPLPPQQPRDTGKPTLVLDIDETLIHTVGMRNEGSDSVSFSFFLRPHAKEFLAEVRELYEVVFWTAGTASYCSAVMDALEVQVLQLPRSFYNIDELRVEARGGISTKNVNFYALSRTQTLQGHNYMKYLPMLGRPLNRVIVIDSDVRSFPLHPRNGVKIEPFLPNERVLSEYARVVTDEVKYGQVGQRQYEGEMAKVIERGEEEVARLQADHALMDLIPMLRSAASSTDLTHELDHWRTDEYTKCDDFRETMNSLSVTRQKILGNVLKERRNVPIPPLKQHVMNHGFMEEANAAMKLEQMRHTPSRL
Assay: SPR, ligand-dependent TbPTP1-TbPIP39 interaction
Format: binding
Conditions: isocitrate-promoted complex formation, indirect evidence; TbPTP1 immobilised

O=C(O)C[C@H](C(=O)O)[C@@H](O)C(=O)O [isocitrate]
SPR, ligand-dependent TbPTP1-TbPIP39 interaction: isocitrate, which does not stimulate differentiation, also promoted the interaction between TbPTP1 and wild type
